From patent publication US20040146872A1, “Fat regulated genes, uses thereof and compounds for modulating same” (priority 2003, published 2004)

How the values were obtained:
Type in all cases: in vivo
[1] = tested on: FTF1; test: Northern blot quantification of FTF1 mRNA in liver of rats fed PUFA-supplemented fat free diet; details: rat liver RNA; female Wistar rats, fat free diet 2 weeks, then fatty acid 5% (w/w) in diet 2 weeks; ± standard deviation of three rats; not normalized for 18S; fat free = 100
Source text: (§1) The present inventors have identified genes that were modulated or regulated by dietary fat using a differential display technique (Liang P. and Pardee A. B., 1992, Science, 257: 967-971). Groups of female Wistar rats were fed fat free diet for two weeks. After two weeks all groups but one (controls) were supplemented with highly purified PUFAs for an additional two weeks. The rats were sacrificed and tissues were removed to obtain RNA for differential display and Northern blotting. Differential display identified genes regulated by dietary fat by comparing mRNA populations from rat liver. For the study, the rats were divided into six groups and fed fat free diet for 14 days. Each group was fed fat free diet for an additional two weeks with the following supplements: group 1-no supplement (fat free control); group 2-linoleic acid (LA, 18:2n-6); group 3-gamma-linolenic acid (GLA, 18:3n-6); group 4-alpha-linolenic acid (ALA, 18:3n-3); group 5-eicosapentaenoic acid (EPA, 20:5n-3) and group 6-docosahexaenoic acid (DHA, 22:6n-3). Fatty acids were administered in the diet at a fatty acid-specific concentration of 5% (w/w), as described in Example 1. The rats were fed ad libitum. […] The rats were randomly divided into 6 groups and fed fat free diet (Teklad #94013). After 2 weeks, groups 2-6 were fed diets supplemented with highly purified polyunsaturated fatty acids for an additional 2 weeks. The concentration of the specific fatty acid used for each group was 5% (w/w) of the total diet preparation. The experimental design is provided below. Diets were prepared by mixing the oils into the fat free diet. The mixed diet was stored at -20° C. under a nitrogen atmosphere to prevent fatty acid oxidation. Dietary feedings were provided at the same time each day. Diet preparations are shown below. Rats ([…]) were sacrificed via cardiac puncture under anesthesia. The livers were perfused with saline, excised and frozen in liquid nitrogen in preparation for RNA extraction. Total RNA from 0.4 g of each liver was isolated as per manufacturer's protocol using Trizol Reagent (Gibco BRL). In order to remove contaminating genomic DNA, the RNA sample was incubated with RQ1 RNase-free DNase (Promega) for 30 minutes at 37° C. The RNA was subsequently precipitated and resuspended to a final concentration of 0.5 mg/ml. To confirm the expression pattern of the genes as discovered in the differential display experiment and to determine the transcript size of these genes, Northern blot analysis was performed. […] The transfer of the RNA onto the membrane was verified by methylene blue staining. […] The Northern blot was performed following the protocol in Ausubel et al., 1994-, Current Protocols in Molecular Biology, John Wiley & Sons, NY. […]

[2] = tested on: INSIG1; test: Northern blot quantification of INSIG1 mRNA in liver of rats fed PUFA-supplemented fat free diet; details: rat liver RNA; female Wistar rats, fat free diet 2 weeks, then fatty acid 5% (w/w) in diet 2 weeks; ± standard deviation of three rats; normalized for 18S; fat free = 100
Source text: as §1

[3] = tested on: GLOL; test: Northern blot quantification of GLOL mRNA in liver of rats fed PUFA-supplemented fat free diet; details: rat liver RNA; female Wistar rats, fat free diet 2 weeks, then fatty acid 5% (w/w) in diet 2 weeks; ± standard deviation of three rats; normalized for 18S; fat free = 100
Source text: as §1

[4] = tested on: A1BG; test: Northern blot quantification of A1BG mRNA in liver of rats fed PUFA-supplemented fat free diet; details: rat liver RNA; female Wistar rats, fat free diet 2 weeks, then fatty acid 5% (w/w) in diet 2 weeks; ± standard deviation of three rats; not normalized for 18S; DHA = 100, fat free = 7 ± 9
Source text: as §1

[5] = tested on: COMT; test: Northern blot quantification of COMT mRNA in liver of rats fed PUFA-supplemented fat free diet; details: rat liver RNA; female Wistar rats, fat free diet 2 weeks, then fatty acid 5% (w/w) in diet 2 weeks; ± standard deviation of three rats; normalized for 18S; fat free = 100
Source text: as §1

[6] = tested on: ApoA-1; test: Northern blot quantification of ApoA-1 mRNA in liver of rats fed PUFA-supplemented fat free diet; details: rat liver RNA; female Wistar rats, fat free diet 2 weeks, then fatty acid 5% (w/w) in diet 2 weeks; ± standard deviation of three rats; normalized for 18S; fat free = 100
Source text: as §1

[7] = tested on: delta-3, delta-2-enoyl-CoA isomerase; test: Northern blot quantification of delta-3, delta-2-enoyl-CoA isomerase mRNA in liver of rats fed PUFA-supplemented fat free diet; details: rat liver RNA; female Wistar rats, fat free diet 2 weeks, then fatty acid 5% (w/w) in diet 2 weeks; ± standard deviation of three rats; normalized for 18S; EPA = 100, fat free = 14 ± 18
Source text: as §1

[8] = tested on: FAS; test: Northern blot quantification of FAS mRNA in liver of rats fed PUFA-supplemented fat free diet; details: rat liver RNA; female Wistar rats, fat free diet 2 weeks, then fatty acid 5% (w/w) in diet 2 weeks; ± standard deviation of three rats; normalized for 18S; fat free = 100
Source text: as §1

[9] = tested on: GPAT; test: Northern blot quantification of GPAT mRNA in liver of rats fed PUFA-supplemented fat free diet; details: rat liver RNA; female Wistar rats, fat free diet 2 weeks, then fatty acid 5% (w/w) in diet 2 weeks; ± standard deviation of three rats; normalized for 18S; fat free = 100
Source text: as §1

[10] = tested on: METP; test: Northern blot quantification of METP mRNA in liver of rats fed PUFA-supplemented fat free diet; details: rat liver RNA; female Wistar rats, fat free diet 2 weeks, then fatty acid 5% (w/w) in diet 2 weeks; ± standard deviation of three rats; normalized for 18S; EPA = 100, fat free = 10 ± 5
Source text: as §1

[11] = tested on: G6PD; test: Northern blot quantification of G6PD mRNA in liver of rats fed PUFA-supplemented fat free diet; details: rat liver RNA; female Wistar rats, fat free diet 2 weeks, then fatty acid 5% (w/w) in diet 2 weeks; ± standard deviation of three rats; not normalized for 18S; fat free = 100
Source text: as §1

[12] = tested on: Spot-14; test: Northern blot quantification of Spot-14 mRNA in liver of rats fed PUFA-supplemented fat free diet; details: rat liver RNA; female Wistar rats, fat free diet 2 weeks, then fatty acid 5% (w/w) in diet 2 weeks; ± standard deviation of three rats; normalized for 18S; fat free = 100
Source text: as §1

[13] = tested on: SCD2; test: Northern blot quantification of SCD2 mRNA in liver of rats fed PUFA-supplemented fat free diet; details: rat liver RNA; female Wistar rats, fat free diet 2 weeks, then fatty acid 5% (w/w) in diet 2 weeks; ± standard deviation of three rats; normalized for 18S; fat free = 100
Source text: as §1

[14] = tested on: SCD1; test: Northern blot quantification of SCD1 mRNA in liver of rats fed PUFA-supplemented fat free diet; details: rat liver RNA; female Wistar rats, fat free diet 2 weeks, then fatty acid 5% (w/w) in diet 2 weeks; ± standard deviation of three rats; normalized for 18S; fat free = 100
Source text: The present inventors have identified genes that were modulated or regulated by dietary fat using a differential display technique (Liang P. and Pardee A. B., 1992, Science, 257: 967-971). Groups of female Wistar rats were fed fat free diet for two weeks. After two weeks all groups but one (controls) were supplemented with highly purified PUFAs for an additional two weeks. The rats were sacrificed and tissues were removed to obtain RNA for differential display and Northern blotting. Differential display identified genes regulated by dietary fat by comparing mRNA populations from rat liver. For the study, the rats were divided into six groups and fed fat free diet for 14 days. Each group was fed fat free diet for an additional two weeks with the following supplements: group 1-no supplement (fat free control); group 2-linoleic acid (LA, 18:2n-6); group 3-gamma-linolenic acid (GLA, 18:3n-6); group 4-alpha-linolenic acid (ALA, 18:3n-3); group 5-eicosapentaenoic acid (EPA, 20:5n-3) and group 6-docosahexaenoic acid (DHA, 22:6n-3). Fatty acids were administered in the diet at a fatty acid-specific concentration of 5% (w/w), as described in Example 1. The rats were fed ad libitum. […] The rats were randomly divided into 6 groups and fed fat free diet (Teklad #94013). After 2 weeks, groups 2-6 were fed diets supplemented with highly purified polyunsaturated fatty acids for an additional 2 weeks. The concentration of the specific fatty acid used for each group was 5% (w/w) of the total diet preparation. The experimental design is provided below. Diets were prepared by mixing the oils into the fat free diet. The mixed diet was stored at -20° C. under a nitrogen atmosphere to prevent fatty acid oxidation. Dietary feedings were provided at the same time each day. Diet preparations are shown below. Rats ([…]) were sacrificed via cardiac puncture under anesthesia. The livers were perfused with saline, excised and frozen in liquid nitrogen in preparation for RNA extraction. Total RNA from 0.4 g of each liver was isolated as per manufacturer's protocol using Trizol Reagent (Gibco BRL). […]

[15] = tested on: mRNA populations from rat liver; test: Differential display of mRNA populations from liver of rats fed PUFA-supplemented fat free diet; details: preliminary differential display studies
Source text: The present inventors have identified genes that were modulated or regulated by dietary fat using a differential display technique (Liang P. and Pardee A. B., 1992, Science, 257: 967-971). Groups of female Wistar rats were fed fat free diet for two weeks. After two weeks all groups but one (controls) were supplemented with highly purified PUFAs for an additional two weeks. The rats were sacrificed and tissues were removed to obtain RNA for differential display and Northern blotting. Differential display identified genes regulated by dietary fat by comparing mRNA populations from rat liver. For the study, the rats were divided into six groups and fed fat free diet for 14 days. Each group was fed fat free diet for an additional two weeks with the following supplements: group 1—no supplement (fat free control); group 2—linoleic acid (LA, 18:2n-6); group 3—gamma-linolenic acid (GLA, 18:3n-6); group 4—alpha-linolenic acid (ALA, 18:3n-3); group 5—eicosapentaenoic acid (EPA, 20:5n-3) and group 6—docosahexaenoic acid (DHA, 22:6n-3). Fatty acids were administered in the diet at a fatty acid-specific concentration of 5% (w/w), as described in Example 1. The rats were fed ad libitum. The protocol used in the present differential display experiment is based on, and closely followed, the Clontech Delta Differential Display Kit (Clontech Catalog No. K1810-1). […]

| SMILES | quantification of the Northern blots, FTF1 [1] [%] | quantification of the Northern blots, INSIG1 [2] [%] | quantification of the Northern blots, GLOL [3] [%] | quantification of the Northern blots, A1BG [4] [%] | quantification of the Northern blots, COMT [5] [%] | quantification of the Northern blots, ApoA-1 [6] [%] | quantification of the Northern blots, delta-3, delta-2-enoyl-CoA isomerase [7] [%] | quantification of the Northern blots, FAS [8] [%] | quantification of the Northern blots, GPAT [9] [%] | quantification of the Northern blots, METP [10] [%] | quantification of the Northern blots, G6PD [11] [%] | quantification of the Northern blots, Spot-14 [12] [%] | quantification of the Northern blots, SCD2 [13] [%] | quantification of the Northern blots, SCD1 [14] [%] | differences in differential display versus fat free control [15] |
| --- | --- | --- | --- | --- | --- | --- | --- | --- | --- | --- | --- | --- | --- | --- | --- |
| CC/C=C\C/C=C\C/C=C\C/C=C\C/C=C\CCCC(=O)O [EPA, eicosapentaenoic acid] | 10 ± 7 | 25 ± 3 | 29 ± 15 | 32 ± 30 | 50 ± 4 | 25 ± 4 | 100 ± 35 | 17 ± 14 | 14 ± 10 | 100 ± 16 | 15 ± 14 | 19 ± 25 | 2 ± 1 |  |  |
| CCCCC/C=C\C/C=C\C/C=C\CCCCC(=O)O [GLA, gamma-linolenic acid] | 4 ± 8 | 11 ± 2 | 37 ± 11 | 14 ± 10 | 45 ± 23 | 32 ± 8 | 33 ± 15 | 17 ± 12 | 15 ± 13 | 78 ± 12 | 8 ± 9 | 12 ± 7 | 11 ± 6 | 6 ± 8 |  |
| CC/C=C\C/C=C\C/C=C\C/C=C\C/C=C\C/C=C\CCC(=O)O [DHA, docosahexaenoic acid] | 13 ± 12 | 13 ± 11 | 36 ± 17 | 100 ± 64 | 49 ± 3 | 12 ± 1 | 87 ± 2 | 27 ± 21 | 26 ± 15 | 80 ± 28 | 19 ± 7 | 24 ± 18 | 4 ± 1 | 1 ± 1 |  |
| CCCCC/C=C\C/C=C\CCCCCCCC(=O)O [LA, linoleic acid] | 56 ± 15 | 49 ± 12 | 64 ± 6 | 52 ± 47 | 59 ± 6 | 90 ± 23 | 29 ± 27 | 47 ± 40 | 52 ± 5 | 37 ± 7 | 42 ± 27 | 50 ± 6 | 63 ± 15 | 63 ± 20 | no differences |
